According to article PMC8073907, “Peptide targeting of lysophosphatidylinositol-sensing GPR55 for osteoclastogenesis tuning” (Cell Communication and Signaling : CCS, 2021):

Legend:
endogenous GPR55 (HeLa) = experiment: LPI-induced ERK/p38 phosphorylation in shCTRL-HeLa clones (Western blot); type: cell-based, human; settings: for inhibition of LPI stimulation of both ERK2 and p38 phosphorylation at 5 min / inhibition of LPI-induced stimulation of ERK1/2: 30 µM ML-191, 10 µM CBD or 10 µM O1918
Procedure: For stable interference of GPR55, HeLa cells were plated at 1.5 × 10^5 cells/well in six-well plates in growth medium without antibiotics, and 24 h later, the cells were transfected with 1.7 µg/well OmicsLink short hairpin (sh)RNA expression clone CSHCTR001-CU6 (shCTRL) or clone HSH022476-3-CU6 (shGPR55) from GeneCopoeia (Rockville, MD, USA), using Lipofectamine 2000, according the manufacturer instructions. Forty-eight hours after transfection, HeLa clones stably expressing shRNAs were selected in growth medium containing 0.3 µg/mL puromycin. The efficiency of interference was monitored by real-time PCR using the primers listed in the Additional file 1: Table S1. HPRT1 was followed as a housekeeping gene.
(§1) Twenty-four hours after transfection (HEK293T, HeLa cells or clones) or 72 h after interference (RAW264.7 cells), the cells were washed twice with HBSS^++, serum deprived (HEK293T cells for 4 h in DMEM; HeLa cells and clones for 2 h in MEM plus 2 mM glutamine and 25 mM HEPES; RAW264.7 cells for 2 h in DMEM), washed once again with HBSS^++, incubated in stimulation buffer (HBSS^++ with 10 mM HEPES, 0.4% faf-BSA for HEK293T cells; HBSS^++ with 25 mM HEPES and 0.01% faf-BSA for HeLa cells, clones, and RAW264.7 cells) in the absence or presence of stimuli, at 37 °C for the indicated times. Incubations were terminated by washing the cells twice with cold HBSS^++, and the analyses were performed as reported below.
Cell lysates were obtained by scraping the cells into phospho-lysis buffer: 50 mM Tris–HCl, pH 7.5, 100 mM NaCl, 5 mM EDTA, 1% Triton X-100, 50 mM NaF, 40 mM β-glycerophosphate, 200 µM sodium orthovanadate, plus protease and phosphatase inhibitors (Roche). Following gentle homogenisation by 20 passages through a 26-gauge needle, the lysates were centrifuged at 10,000×g for 5 min at 4 °C, and the supernatants were collected.
Protein lysates were subjected to SDS-PAGE, and after electrophoresis, the proteins were transferred to a nitrocellulose membrane (PerkinElmer Life Science, Boston, MA, USA). For immunoblotting, the membranes were blocked with 5% non-fat milk in TBS (10 mM Tris–HCl, pH 7.4, 10 mM NaCl) plus 0.1% Tween-20 (T-TBS) for 30 min at room temperature, and incubated with primary antibodies in T-TBS plus 3% BSA for 2 h at room temperature, or overnight at 4 °C. The membranes were washed twice in T-TBS for 7 min, and then incubated with secondary antibodies conjugated to horseradish peroxidase (1:5,000) (Calbiochem, San Diego, CA, USA) in T-TBS with 5% non-fat milk for 30 min at room temperature. The membranes were then washed twice with T-TBS and once with TBS for 5 min, and the signals were detected by ECL (Amersham Pharmacia, Piscataway, NJ, USA). The rabbit anti-phospho AKT (Ser473), anti-phospho p38 (Thr180/Tyr182), anti-phospho p42/44 (Thr202/Tyr204), anti-p38 (all at dilution 1:1000) were from Cell Signaling Technology (Danvers, MA, USA). The rabbit anti-AKT (B-1), and anti-p42/44 (ERK1; K-23) were from Santa Cruz Biotechnology.

[1] = system: Gpr55 mRNA in RAW264.7 cells; experiment: Modulation of Gpr55 mRNA levels by receptor ligands in RANKL-treated RAW264.7 cells; type: cell-based, murine; settings: 72 h; for Gpr55 mRNA levels (fold non-differentiated): alone or + 1 μM soybean LPI, 0.5 μM ML-191, 0.5 μM CBD or 30 μM O1918, means ± SEM of at least three independent experiments
Procedure: (§2) Total RNA was extracted using RNeasy isolation kits, cDNAs were obtained using QuantiTect Reverse Transcription kits, and real-time PCRs were performed with QuantiTect SYBR Green PCR kits (all from Qiagen, Hilden, Germany), according to the manufacturer instructions. The primers used for the real-time PCRs and their annealing temperatures are listed in the Additional file 1: Table S1. Human hypoxanthine phosphoribosyltransferase 1 (HPRT1) or murine β2-microglobulin were followed as housekeeping genes. The real-time PCR programme consisted of an initial 15 min at 95 °C, and then 45 cycles as follows: 94 °C for 15 s, annealing temperature of each primer for 30 s, and 72 °C for 30 s. The real-time PCR machine used was a LightCycler 480 Instrument II (Roche, Indianapolis, IN, USA).
(§3) For the osteoclastogenesis in-vitro assay, RAW264.7 cells were plated in differentiation medium (α-MEM with 10% heat-inactivated FBS, 2 mM L-glutamine, 100 U/mL penicillin, and 100 ug/mL streptomycin) at a density of 5 × 10^3 cells/well in 24-well plates on coverslips for morphological analysis, or at 2 × 10^4 cells/well in six-well plates for RNA extraction. Twenty-four hours later and every 48 h, the medium was replaced and the cells were treated with 15–30 ng/mL RANKL with DMSO and/or PBS as carriers, or with GPR55 antagonists/ agonists (0.5 µM ML-191, 30 µM O1918, 0.5 µM CBD, 0.5 μM CID16020046 1 µM soybean LPI, 1 μM ML-184), or with the peptides (150 nM peptide-P1; or the irrelevant peptide, Irr_P). Twenty-four hours after the last addition, the cells were fixed with 4% paraformaldehyde for morphological analyses or harvested for RNA extraction (see above).

RAW264.7 cells = experiment: RANKL-induced transcription of osteoclastogenesis markers in RAW264.7 cells (real-time PCR); type: cell-based, murine; settings: 72 h; for effect on RANKL-induced Mmp-9 mRNA: 0.5 µM CBD
Procedure: as §2
For transient interference of Gpr55, RAW264.7 cells were plated at 6 × 10^5 cells/well in six-well plates in growth medium without antibiotics. Twenty-four hours later, the cells were transfected with 250 pmol/well non-targeting small-interfering (si)RNAs (si-NT; siGENOME siRNA Pool #2; D-001206-14; Dharmacon, Chicago, IL, USA) or Gpr55-specific siRNAs (si-GPR55; siGENOME mouse GPR55 SMART pool; M-043590-01; Dharmacon) using Lipofectamine LTX and Plus Reagent, according to the manufacturer instructions. Twenty-four hours later, the cells were plated for the different assays or for RNA extraction. The efficiency of interference was monitored by real-time PCR after 72 h of interference, using the primers listed in the Additional file 1: Table S1. β2-microglobulin was followed as a housekeeping gene.
as §3

[2] = system: HA-GPR55 in HEK293T cells; experiment: LPI-induced ERK1/2 activation in GPR55-transfected HEK293T cells; type: cell-based, human; settings: soybean or synthetic LPI, 100 nM to 10 µM, 3–30 min; different transfection methods
Text: The construct of haemagglutinin (HA)-tagged human GPR55 in pcDNA3 (HA-GPR55) was a gift from Prof. K. Mackie, Indiana University, Bloomington, IN, USA [39], while the construct ss-3 × HA-GPR55 in pcDNA3.1 (ssGPR55) with a triple HA tag at the N-terminus and an optimised signal sequence (ss, derived from amino acids 1–33 of the human growth hormone: […]) for efficient surface expression was from Prof. A. Irving, Dundee University, UK [40]. For both constructs, mutations were introduced by site-directed mutagenesis using QuickChange kits (Stratagene, La Jolla, CA, USA), according to the manufacturer instructions. The primers for the K80A mutation were 5′-[…]-3′ and 5′-[…]-3′ (Tm, 70.6 °C), and for Q87A were 5′-[…]-3′ and 5′-[…]-3′ (Tm, 73.1 °C).
For GPR55 overexpression, HEK293T cells were plated in their growth medium without antibiotics at 2.6 × 10^5 cells/well in 12-well plates, and 24 h later, the cells were transfected with 1 µg cDNA/well using Lipofectamine 2000, according to the manufacturer instructions. The pcDNA3 empty vector or that coding for human HA-GPR55 wild-type or its mutants HA-GPR55-K80A and HA-GPR55-Q87A were used.
as §1, with “Incubations were terminated by washing the cells twice with cold HBSS^++, and the analyses were performed as reported below.” left out
Protein lysates were subjected to SDS-PAGE, and after electrophoresis, the proteins were transferred to a nitrocellulose membrane (PerkinElmer Life Science, Boston, MA, USA). […] The membranes were then washed twice with T-TBS and once with TBS for 5 min, and the signals were detected by ECL (Amersham Pharmacia, Piscataway, NJ, USA). […]

[3] = system: osteoclasts derived from RAW264.7 cells; experiment: Osteoclast functional assay (bone resorption on bovine cortical bone slices); type: cell-based, murine; settings: 15 ng/mL RANKL, 7 days; at least three independent experiments
Procedure: RAW264.7 cells were plated in differentiation medium at a density of 1250 cells/100 µL on 0.2-mm-thick bovine cortical bone slices (BoneSlices.com, Jelling, Denmark) in 96-well plates. Six hours later, 100 µL differentiation medium with RANKL (15 ng/mL, final concentration) was added, in the presence of a carrier or in combination with the GPR55 modulators. The media with the different compounds were replaced every 48 h, for a total of 7 days. At the end of this period, the cells were detached with a 10% bleach solution, and the resorption excavations were visualised by using Toluidine Blue staining (Sigma-Aldrich). Images of the resorption areas were obtained under the microscope (SW380T; Swift Optical Instruments, Inc., TX, USA) using the 10 × objective, and acquired with a digital camera (Swiftcam SC1003; Swift Optical Instruments, Inc.). The total eroded surface underwent blinded quantification using ImageJ (NIH), and was subdivided into pit and trench surfaces. Pits were characterised as round excavations with well-defined edges where the ratio between length and width was < 2.0. Trenches were defined as elongated excavations with well-defined edges whose length was at least twice the wide, and with clear signs of continued resorption. The prevalence of trenches was calculated as a proportion (%) of the trench surface relative to the total eroded surface.

[4] = 15–30 ng/mL RANKL, 0.5 µM ML-191, 0.5 µM CBD, 30 µM O1918, four independent experiments
[5] = 10 µM soybean LPI, 10 min, 10 µM CBD or 30 µM ML-191, relative to CBD or ML-191 basal level
[6] = 30 ng/mL RANKL, mean ± range of two independent experiments

Molecule | inhibition of LPI stimulation of both ERK2 and p38 phosphorylation at 5 min (endogenous GPR55 (HeLa); 10 µM soybean LPI) | inhibition of LPI-induced stimulation of ERK1/2 (endogenous GPR55 (HeLa); 10 µM soybean LPI) | Gpr55 mRNA levels (fold non-differentiated) ([1]; 30 ng/mL RANKL) | effect on RANKL-induced Mmp-9 mRNA (RAW264.7 cells; 15–30 ng/mL RANKL, 30 µM O1918) | effect on RANKL-induced Ctr mRNA (RAW264.7 cells; [4]) | reduction of RANKL-induced Nfatc1 mRNA (RAW264.7 cells; [4]) | reduction of RANKL-induced Trap mRNA (RAW264.7 cells; [4]) | further results
C=C(C)[C@@H]1CCC(C)=C[C@H]1c1c(OC)cc(C)cc1OC [O1918] | inhibited LPI stimulation of both ERK2 and p38 phosphorylation at 5 min | abolished | 15.8 ± 3.1 fold non-differentiated | not affected | not affected | 40% | 40% | basal ERK2 activation level (without LPI) (endogenous GPR55 (HeLa); 30 µM ML-191 or 10 µM O1918): significantly increased basal activation levels; effect on RANKL-stimulated Gpr55 mRNA levels ([1]; 30 μM O1918): did not show any effects; effect on RANKL-induced Cathepsin-k mRNA (RAW264.7 cells; 15–30 ng/mL RANKL, 30 µM O1918): not affected
Cc1cccc(N2CCN(C(=O)c3cc(S(=O)(=O)N(C)C)ccc3N3CCCC3)CC2)c1C [ML-184] | – | – | – | – | – | – | – | RANKL-induced transcription of Ctr, si-NT versus si-GPR55 cells (RAW264.7 cells; RANKL 15 ng/mL, 1 µM soybean LPI or 1 µM ML-184): similarly increased RANKL-induced transcription of Ctr only in precursor cells treated with non-targeting siRNAs, and not in those silenced for GPR55
C=C(C)[C@@H]1CCC(C)=C[C@H]1c1c(O)cc(CCCCC)cc1O [CBD, Cannabidiol] | inhibited LPI stimulation of both ERK2 and p38 phosphorylation at 5 min | strongly inhibited | 27.7 ± 0.5 fold non-differentiated | not affected | not affected | 40% | 50% | ERK2 phosphorylation upon LPI stimulation in presence of antagonist (endogenous GPR55 (HeLa); [5]): 3.3 -fold the antagonist basal lev; p38 phosphorylation upon LPI stimulation in presence of antagonist (endogenous GPR55 (HeLa); [5]): 1.5 -fold the antagonist basal lev; further enhancement of RANKL-stimulated Gpr55 mRNA levels ([1]; 0.5 μM ML-191, 0.5 μM CBD, 1 μM soybean LPI, versus RANKL alone): 0.7 -fold; reduction of RANKL-induced Cathepsin-k mRNA (RAW264.7 cells; [4]): 44%
L-α-lysophosphatidylinositol sodium salt from soybean [soybean LPI] | – | – | 24.5 ± 2.1 fold non-differentiated | – | – | – | – | ERK1/2 activation in GPR55-transfected compared to empty-vector-transfected cells [2]: inconsistent ERK1/2 activation
RANKL: Receptor-activator of nuclear factor kappa-β ligand, Peprotech (protein, UniProt O14788 140-317, looked up) Tumor necrosis factor ligand …: IRAEKAMVDGSWLDLAKRSKLEAQPFAHLTINATDIPSGSHKVSLSSWYHDRGWAKISNMTFSNGKLIVNQDGFYYLYANICFRHHETSGDLATEYLQLMVYVTKTSIKIPSSHTLMKGGSTKYWSGNSEFHFYSINVGGFFKLRSGEEISIEVSNPSLLDPDQDATYFGAFKVRDID | – | – | 16.1 ± 1.6 fold non-differentiated | – | – | – | – | Gpr55 mRNA increase ([1]; 30 ng/mL RANKL, three independent experiments): 14 -fold; Cathepsin-k mRNA increase versus undifferentiated cells (RAW264.7 cells; [6]): 468.5 (±24.3) -fold; Mmp-9 mRNA increase versus undifferentiated cells (RAW264.7 cells; [6]): 673.3 (±4.7) -fold; Nfatc1 mRNA increase versus undifferentiated cells (RAW264.7 cells; [6]): 11.9 (±2.2) -fold; Trap mRNA increase versus undifferentiated cells (RAW264.7 cells; [6]): 188.8 (±57.6) -fold; trench surface relative to total eroded surface [3]: 42 ± 8 % of total eroded surface
